Tests used:
HCT116 MTAP KO cells = assay: In vitro proliferation assay of HCT116 MTAP KO cells; type: cell-based; settings: 10 days, 3D CellTiter-Glo
Experimental: (§1) McCoy's 5A medium, penicillin/streptomycin antibiotics, purchased from Wisent; fetal bovine serum, purchased from Biosera. 3D CellTiter-Glo (chemiluminescent cell viability assay reagent), purchased from Promega. HCT116 WT cell line, purchased from Nanjing Cobioer Biosciences Co., Ltd. HCT116 MTAP KO cell line, purchased from Horizon Discovery. Envision multilabel plate reader (PerkinElmer).
(§2) HCT116 WT and MTAP KO cells were seeded into an ultra-low attachment 96-well U-bottom plate at a density of 80 μL cell suspension per well containing 1000 HCT116 cells. The cell plate was incubated overnight in a CO2 incubator.
(§3) The test compound was serially diluted 5-fold across eight concentrations using a pipette, ranging from 2 mM to 25.6 nM, and tested in duplicate. 78 μL of medium per well was added to an intermediate plate. Subsequently, 2 μL of the serially diluted compound per well was transferred to the corresponding wells of the intermediate plate and mixed well. […] An additional cell plate was prepared to read the signal value on the day of compound addition, which served as the […] for data analysis.
(§4) The cell plate was added with 100 μL of chemiluminescent cell viability assay reagent per well and incubated at room temperature for 10 minutes to stabilize the luminescent signal. A multilabel microplate reader was used for reading. […]

HCT116 WT cells = assay: In vitro proliferation assay of HCT116 WT cells; type: cell-based; settings: 10 days, 3D CellTiter-Glo
Experimental: as §1, §2, §3, §4

[1] = In vitro liver microsomal stability test, human; type: in vitro ADME; settings: Human liver microsomes, 1 μM compound, 0.5 mg/mL
Experimental: (§5) Liver microsomes: Human and animal microsomes were purchased from Corning or Xenotech and stored in a −80° C. freezer.
(§6) Reduced nicotinamide adenine dinucleotide phosphate (NADPH), supplier: Chem-Impex International, Cat. No.: 00616.
(§7) Stock solution: 10 mM DMSO solution
(§8) Preparation of working concentration: The stock solution was diluted to 100 µM using 100% acetonitrile (organic phase content: 99% acetonitrile, 1% DMSO).
(§9) Two 96-well incubation plates were prepared and named as T60 incubation plate and NCF60 incubation plate.
(§10) 445 μL of microsomal working solution (liver microsomal protein concentration of 0.56 mg/mL) was added to both the T60 incubation plate and the NCF60 incubation plate.
(§11) The two incubation plates were pre-incubated in a 37° C. water bath for approximately 10 minutes.
(§12) After pre-incubation, 5 μL of the test compound or control compound working solution was added to both the T60 incubation plate and the NCF60 incubation plate and mixed well. 50 μL of potassium phosphate buffer per well was added to the NCF60 incubation plate to initiate the reaction. 180 μL of termination solution (acetonitrile solution containing 200 ng/mL tolbutamide and 200 ng/mL labetalol) and 6 μL of NADPH regeneration system working solution were added to a TO termination plate. […]

[2] = In vitro liver microsomal stability test, dog; type: in vitro ADME; settings: Dog liver microsomes, 1 μM compound, 0.5 mg/mL
Experimental: as §5, §6, §7, §8, §9, §10, §11, §12

[3] = In vitro liver microsomal stability test, rat; type: in vitro ADME; settings: Rat liver microsomes, 1 μM compound, 0.5 mg/mL
Experimental: as §5, §6, §7, §8, §9, §10, §11, §12

[4] = Pharmacokinetic testing in CD-1 mice; type: in vivo
Experimental: Experimental purpose: To test the pharmacokinetic properties of the compound of the present disclosure in CD-1 mice.
Experimental materials: CD-1 mice (female, 15 to 30 g, 6 to 9 weeks, Beijing Vital River Laboratory Animal Technology Co., Ltd.)
The pharmacokinetic characteristics of the compound in rodents were tested following intravenous injection and oral administration according to a standard protocol. In the experiment, the candidate compound was prepared as a clear solution for single intravenous injection and as a homogeneous suspension for single oral administration in mice. In the case of intravenous injection, the dose was 3 mg/kg, with the vehicle being 5% DMSO/10% Solutol/85% water. In the case of oral administration, the dose was 30 mg/kg, with the vehicle being 0.5% MC (4000 cps)/0.2% Tween-80. Whole blood samples were collected within 24 hours, centrifuged at 3000 g for 15 minutes at 4° C., and the supernatant was separated to obtain plasma samples. 20 times the volume of acetonitrile solution containing internal standard was added to precipitate the protein. The samples were vortexed for 10 minutes and centrifuged at 3220 g for 15 minutes at 4° C. The supernatant was transferred to a 96-well plate and centrifuged at 3220 g for 5 minutes at 4° C. The supernatant was then injected for LC-MS/MS analysis to quantify plasma concentration, and pharmacokinetic parameters were calculated.

[5] = Pharmacokinetic testing in Beagles; type: in vivo
Experimental: Experimental purpose: To test the pharmacokinetic properties of the compound of the present disclosure in Beagles.
Experimental materials: Beagles (male, >6 months old, Beijing Marshall Biotechnology Co., Ltd.)
The pharmacokinetic characteristics of the compound in dogs were tested following intravenous injection and oral administration according to a standard protocol. In the experiment, the test compound was prepared as a clear solution for single intravenous injection and single oral administration in dogs. In the case of intravenous injection, the dose was 2 mg/kg, with the vehicle being 5% DMSO/10% Solutol/85% water. In the case of oral administration, the dose was 10 mg/kg, with the vehicle being 5% DMSO/10% Solutol/85% water. Whole blood samples were collected within 48 hours, centrifuged at 3000 g for 15 minutes at 4° C., and the supernatant was separated to obtain plasma samples. 20 times the volume of acetonitrile solution containing internal standard was added to precipitate the protein. The samples were vortexed for 10 minutes and centrifuged at 3220 g for 15 minutes at 4° C. The supernatant was transferred to a 96-well plate and centrifuged at 3220 g for 5 minutes at 4° C. The supernatant was then injected for LC-MS/MS analysis to quantify plasma concentration, and pharmacokinetic parameters were calculated.

[6] = test system: human large cell lung cancer LU99 subcutaneous xenograft tumor; assay: In vivo efficacy test, LU99 subcutaneous xenograft tumor model; parameters: species or system BALB/c nude mice; settings: for TGI: based on tumor volume on day 29
Experimental: To evaluate the tumor inhibitory effect of the compounds of the present disclosure on a human large cell lung cancer LU99 subcutaneous xenograft tumor model.
Female BALB/c nude mice were subcutaneously inoculated with the human large cell lung cancer LU99 cell line. After inoculation, the mice were randomly divided into groups based on body weight and tumor volume, with six animals per group, and were administered as described below.
Group 1 (vehicle group): When the tumor volume reached 207±9 mm^3 after inoculation, the mice were administered daily by gavage with the vehicle (5% DMSO/10% Solutol/85% double-distilled water) at a dose of 0.1 mL/10 g.
Group 2 (treatment group): When the tumor volume reached 207±10 mm^3 after inoculation, the mice were administered daily by gavage with the test compound (compound dissolved in 5% DMSO/10% Solutol/85% double-distilled water) at a dose of 12.5 mg/kg.
Group 3 (treatment group): When the tumor volume reached 207±10 mm^3 after inoculation, the mice were administered daily by gavage with the test compound (compound dissolved in 5% DMSO/10% Solutol/85% double-distilled water) at a dose of 25 mg/kg.
Group 4 (treatment group): When the tumor volume reached 207±14 mm^3 after inoculation, the mice were administered daily by gavage with the test compound (compound dissolved in 5% DMSO/10% Solutol/85% double-distilled water) at a dose of 50 mg/kg.
After the experimental grouping, the mice were weighed twice weekly, and the tumor diameters were measured using a vernier caliper. The tumor volume was calculated, and then the tumor growth inhibition (TGI) was calculated. On day 29 after experimental administration, the mice were euthanized and sampled. The calculation formulas are as follows:
Tumor volume=0.5×Length×Width^2
TGI (%)=[1−(Ti−T0)/(Ci−C0)]×100%, where Ti is the average tumor volume of a given administration group on a given day, T0 is the average tumor volume of the administration group at the start of administration, Ci is the average tumor volume of the control group on a given day (the same day as Ti), and C0 is the average tumor volume of the control group at the start of administration.

Cn1ncc(-c2ccc3c(=O)[nH]nc(CN)c3c2)c1-c1c(F)c(Cl)cc(OC2(C)CC2)c1C#N (single isomer, unassigned) [Compound 1A]
IC50 (HCT116 MTAP KO cells): 8 nM
IC50 (HCT116 WT cells): > 10000 nM

Cn1ncc(-c2ccc3c(=O)[nH]nc(CN)c3c2)c1-c1c(F)c(Cl)cc(OC2(C)CC2)c1C#N (single isomer, unassigned) [Compound 3A]
IC50 (HCT116 MTAP KO cells): 7.43 nM
IC50 (HCT116 WT cells): 4700 nM

[2H]C([2H])([2H])n1ncc(-c2ccc3c(=O)[nH]nc(CN)c3c2)c1-c1c(F)c(Cl)cc(OC2(C)CC2)c1C#N [Compound 3A]
Liver microsomal stability CLint [1]: 20.4 mL/min/kg
Liver microsomal stability CLint [2]: 47.7 mL/min/kg
Liver microsomal stability CLint [3]: 53.6 mL/min/kg
Clearance Cl ([4]; intravenous injection 3 mg/kg): 30.0 mL/min/kg
Half-life T1/2 ([4]; intravenous injection 3 mg/kg): 1.29 h
Bioavailability F ([4]; oral 30 mg/kg): 46.8%
Concentration integral AUC0-last ([4]; oral 30 mg/kg): 16.059 µM·h
Clearance ([5]; intravenous injection 2 mg/kg): 4.29 mL/min/kg
Half-life T1/2 ([5]; intravenous injection 2 mg/kg): 5.90 h
Bioavailability F ([5]; oral 10 mg/kg): 113%
Plasma concentration integral AUC0-last ([5]; oral 10 mg/kg): 91.502 µM·h
Tumor volume ([6]; 12.5 mg/kg daily by gavage, Day 0): 207 mm^3
Tumor volume ([6]; 12.5 mg/kg daily by gavage, Day 4): 253 mm^3
Tumor volume ([6]; 12.5 mg/kg daily by gavage, Day 8): 297 mm^3
Tumor volume ([6]; 12.5 mg/kg daily by gavage, Day 11): 331 mm^3
Tumor volume ([6]; 12.5 mg/kg daily by gavage, Day 15): 382 mm^3
Tumor volume ([6]; 12.5 mg/kg daily by gavage, Day 18): 440 mm^3
Tumor volume ([6]; 12.5 mg/kg daily by gavage, Day 22): 494 mm^3
Tumor volume ([6]; 12.5 mg/kg daily by gavage, Day 25): 565 mm^3
Tumor volume ([6]; 12.5 mg/kg daily by gavage, Day 29): 755 mm^3
TGI ([6]; 12.5 mg/kg daily by gavage): 66%
Tumor volume ([6]; 25 mg/kg daily by gavage, Day 0): 207 mm^3
Tumor volume ([6]; 25 mg/kg daily by gavage, Day 4): 254 mm^3
Tumor volume ([6]; 25 mg/kg daily by gavage, Day 8): 247 mm^3
Tumor volume ([6]; 25 mg/kg daily by gavage, Day 11): 240 mm^3
Tumor volume ([6]; 25 mg/kg daily by gavage, Day 15): 238 mm^3
Tumor volume ([6]; 25 mg/kg daily by gavage, Day 18): 248 mm^3
Tumor volume ([6]; 25 mg/kg daily by gavage, Day 22): 282 mm^3
Tumor volume ([6]; 25 mg/kg daily by gavage, Day 25): 363 mm^3
Tumor volume ([6]; 25 mg/kg daily by gavage, Day 29): 491 mm^3
TGI ([6]; 25 mg/kg daily by gavage): 83%
Tumor volume ([6]; 50 mg/kg daily by gavage, Day 0): 207 mm^3
Tumor volume ([6]; 50 mg/kg daily by gavage, Day 4): 239 mm^3
Tumor volume ([6]; 50 mg/kg daily by gavage, Day 8): 238 mm^3
Tumor volume ([6]; 50 mg/kg daily by gavage, Day 11): 209 mm^3
Tumor volume ([6]; 50 mg/kg daily by gavage, Day 15): 206 mm^3
Tumor volume ([6]; 50 mg/kg daily by gavage, Day 18): 193 mm^3
Tumor volume ([6]; 50 mg/kg daily by gavage, Day 22): 226 mm^3
Tumor volume ([6]; 50 mg/kg daily by gavage, Day 25): 273 mm^3
Tumor volume ([6]; 50 mg/kg daily by gavage, Day 29): 412 mm^3
TGI ([6]; 50 mg/kg daily by gavage): 87%

Source: patent publication US20250059169A1, “PYRAZOLE-1(2H)-PHTHALAZINONE COMPOUND AND APPLICATION THEREOF” (MEDSHINE DISCOVERY INC., priority 2021, published 2025)
